Assay results from ChEMBL document CHEMBL4414645, “Development of Robust 17(R),18(S)-Epoxyeicosatetraenoic Acid (17,18-EEQ) Analogues as Potential Clinical Antiarrhythmic Agents” (J Med Chem, 2019).
≈ marks a conversion by molar mass, not a printed value.

What was measured:
[1] = Efflux ratio of apparent permeability across basolateral to apical side over apical to basolateral side in human Caco2 cells at 10 uM after 15 to 90 mins by LC-ESI-MS/MS analysis; format: ADME, cell-based; settings: Caco-2
[2] = Apparent permeability across basolateral to apical side in human Caco2 cells at 10 uM after 15 to 90 mins by LC-ESI-MS/MS analysis; format: ADME, cell-based; settings: Caco-2
[3] = molecular target: Cytochrome P450 2C9 (Homo sapiens, UniProt P11712); assay: Inhibition of human CYP2C9 by fluorescence method; format: ADME
[4] = Aqueous solubility of the compound in pH 7.4 potassium phosphate buffer at 2 mg after 1 to 24 hrs by RP-HPLC method; format: physicochemical; settings: potassium phosphate buffer, read-out: solubility
[5] = molecular target: T1, Bifunctional epoxide hydrolase 2 (Homo sapiens) (UniProt P34913); settings: Sf21, at 1 µM
T1 sequence (whole entry): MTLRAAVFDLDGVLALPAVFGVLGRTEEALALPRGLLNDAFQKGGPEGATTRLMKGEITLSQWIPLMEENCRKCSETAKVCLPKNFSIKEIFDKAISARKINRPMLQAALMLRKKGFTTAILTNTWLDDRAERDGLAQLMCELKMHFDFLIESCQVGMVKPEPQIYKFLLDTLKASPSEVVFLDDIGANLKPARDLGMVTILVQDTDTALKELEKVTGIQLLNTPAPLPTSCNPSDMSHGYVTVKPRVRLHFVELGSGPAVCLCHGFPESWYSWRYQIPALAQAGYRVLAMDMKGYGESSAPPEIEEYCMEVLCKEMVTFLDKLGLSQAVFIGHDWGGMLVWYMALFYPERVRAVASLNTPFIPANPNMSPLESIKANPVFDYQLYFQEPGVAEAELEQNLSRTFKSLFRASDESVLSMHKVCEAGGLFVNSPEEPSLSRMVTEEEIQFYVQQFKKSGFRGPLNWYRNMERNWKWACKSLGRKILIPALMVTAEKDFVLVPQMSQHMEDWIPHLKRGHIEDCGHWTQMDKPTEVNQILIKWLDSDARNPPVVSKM
Description: Inhibition of N-terminal His-tagged recombinant human soluble epoxide hydrolase (2 to 555 residues) expressed in Sf21 insect cells at 1 uM using as 14,15-EET as substrate after 10 mins by reversed-phase HPLC assay relative to control

[6] = n-Octanol-Tris/phosphoric acid buffer buffer distribution coefficient, log D of the compound at pH 7.4 shaken for 30 mins and measured after 24 hrs by UV-HPLC method; format: physicochemical
[7] = molecular target: Cytochrome P450 2D6 (Homo sapiens, UniProt P10635); assay: Inhibition of human CYP2D6 by fluorescence method; format: ADME
[8] = Half life in human hepatocytes at 1 uM measured up to 180 mins by LC-ESI-MS/MS analysis; format: ADME, cell-based, Hepatocyte
[9] = Stability of compound in HEPES buffer assessed as parent compound remaining at 1 uM after 180 mins by LC-ESI-MS/MS analysis; format: physicochemical; settings: read-out: Stability
[10] = Apparent permeability across apical to basolateral side in human Caco2 cells at 10 uM after 15 to 90 mins by LC-ESI-MS/MS analysis; format: ADME, cell-based; settings: Caco-2
[11] = molecular target: T2, Cytochrome P450 2C8 (Homo sapiens, UniProt P10632); assay: Inhibition of human CYP2C8 by fluorescence method; format: ADME
T2 sequence (P10632 whole entry): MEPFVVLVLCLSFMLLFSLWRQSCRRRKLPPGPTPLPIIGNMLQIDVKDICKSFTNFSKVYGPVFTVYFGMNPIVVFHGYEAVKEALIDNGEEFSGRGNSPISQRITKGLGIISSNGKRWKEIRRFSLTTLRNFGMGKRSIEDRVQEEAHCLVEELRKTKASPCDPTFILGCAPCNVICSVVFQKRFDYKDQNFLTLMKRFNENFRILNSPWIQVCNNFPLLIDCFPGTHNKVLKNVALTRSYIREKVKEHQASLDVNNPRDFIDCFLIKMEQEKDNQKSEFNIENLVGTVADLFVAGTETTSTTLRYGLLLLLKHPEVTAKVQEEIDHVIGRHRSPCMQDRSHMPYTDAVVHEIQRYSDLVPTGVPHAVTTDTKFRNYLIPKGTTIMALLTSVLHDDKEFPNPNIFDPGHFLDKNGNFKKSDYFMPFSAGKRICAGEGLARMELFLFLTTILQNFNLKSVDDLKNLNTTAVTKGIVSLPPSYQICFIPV

[12] = molecular target: T3, Cytochrome P450 2B6 (Homo sapiens, UniProt P20813); assay: Inhibition of human CYP2B6 by fluorescence method; format: ADME
T3 sequence (P20813 whole entry): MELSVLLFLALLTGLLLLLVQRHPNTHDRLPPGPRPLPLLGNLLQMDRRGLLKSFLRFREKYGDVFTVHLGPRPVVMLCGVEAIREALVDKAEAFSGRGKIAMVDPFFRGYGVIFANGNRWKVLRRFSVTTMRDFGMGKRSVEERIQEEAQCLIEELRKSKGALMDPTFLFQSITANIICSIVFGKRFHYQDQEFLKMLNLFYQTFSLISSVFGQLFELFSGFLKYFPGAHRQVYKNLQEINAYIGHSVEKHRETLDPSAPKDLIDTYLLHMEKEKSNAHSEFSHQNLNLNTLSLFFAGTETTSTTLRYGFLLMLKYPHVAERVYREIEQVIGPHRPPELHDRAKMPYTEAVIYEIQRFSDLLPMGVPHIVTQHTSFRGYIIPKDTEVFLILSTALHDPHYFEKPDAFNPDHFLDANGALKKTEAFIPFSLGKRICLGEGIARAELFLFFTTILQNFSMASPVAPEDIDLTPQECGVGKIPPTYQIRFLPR

[13] = Protein binding in human plasma at 10 uM incubated for 60 mins by LC-ESI-MS/MS analysis; format: ADME, cell-free; settings: read-out: PPB (converted)
[14] = molecular target: Cytochrome P450 2C19 (Homo sapiens, UniProt P33261); assay: Inhibition of human CYP2C19 by fluorescence method; format: ADME
[15] = system: Cytochrome P450; assay: Drug metabolism in human liver microsomes assessed as CYP450-mediated formation of [+O] metabolites at 1 uM after 60 mins in absence of NADPH by LC-MS analysis; format: ADME; settings: 1 h
[16] = molecular target: T4, Cytochrome P450 1A2 (Homo sapiens, UniProt P05177); assay: Inhibition of human CYP1A2 by fluorescence method; format: ADME
T4 sequence (P05177 whole entry): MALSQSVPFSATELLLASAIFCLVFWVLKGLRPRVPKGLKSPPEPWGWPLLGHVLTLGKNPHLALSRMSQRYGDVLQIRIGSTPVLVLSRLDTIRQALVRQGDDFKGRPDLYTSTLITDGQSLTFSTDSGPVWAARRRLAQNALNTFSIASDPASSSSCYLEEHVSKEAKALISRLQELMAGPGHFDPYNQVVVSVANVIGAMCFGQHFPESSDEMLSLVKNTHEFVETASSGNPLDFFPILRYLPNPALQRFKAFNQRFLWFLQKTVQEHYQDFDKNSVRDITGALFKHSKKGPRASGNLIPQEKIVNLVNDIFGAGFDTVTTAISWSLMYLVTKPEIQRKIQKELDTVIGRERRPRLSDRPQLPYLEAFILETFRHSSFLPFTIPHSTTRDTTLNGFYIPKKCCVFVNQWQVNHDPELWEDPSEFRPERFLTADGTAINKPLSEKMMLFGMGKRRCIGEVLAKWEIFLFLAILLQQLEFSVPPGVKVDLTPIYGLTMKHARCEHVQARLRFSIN

Cytochrome P450 2C9, sequence (P11712 whole entry): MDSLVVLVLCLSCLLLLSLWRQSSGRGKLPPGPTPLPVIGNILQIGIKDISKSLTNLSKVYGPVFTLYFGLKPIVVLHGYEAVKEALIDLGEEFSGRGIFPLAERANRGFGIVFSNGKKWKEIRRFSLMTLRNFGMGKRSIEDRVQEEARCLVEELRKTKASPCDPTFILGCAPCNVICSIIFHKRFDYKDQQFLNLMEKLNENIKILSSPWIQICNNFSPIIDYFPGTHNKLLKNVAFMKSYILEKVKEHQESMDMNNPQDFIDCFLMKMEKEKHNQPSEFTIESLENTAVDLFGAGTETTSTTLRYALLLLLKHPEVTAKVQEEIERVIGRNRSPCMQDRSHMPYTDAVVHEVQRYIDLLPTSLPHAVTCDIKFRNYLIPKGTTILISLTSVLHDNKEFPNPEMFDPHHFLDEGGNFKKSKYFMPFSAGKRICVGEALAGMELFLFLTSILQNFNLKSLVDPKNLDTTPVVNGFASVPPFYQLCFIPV
Cytochrome P450 2D6, sequence (P10635 whole entry): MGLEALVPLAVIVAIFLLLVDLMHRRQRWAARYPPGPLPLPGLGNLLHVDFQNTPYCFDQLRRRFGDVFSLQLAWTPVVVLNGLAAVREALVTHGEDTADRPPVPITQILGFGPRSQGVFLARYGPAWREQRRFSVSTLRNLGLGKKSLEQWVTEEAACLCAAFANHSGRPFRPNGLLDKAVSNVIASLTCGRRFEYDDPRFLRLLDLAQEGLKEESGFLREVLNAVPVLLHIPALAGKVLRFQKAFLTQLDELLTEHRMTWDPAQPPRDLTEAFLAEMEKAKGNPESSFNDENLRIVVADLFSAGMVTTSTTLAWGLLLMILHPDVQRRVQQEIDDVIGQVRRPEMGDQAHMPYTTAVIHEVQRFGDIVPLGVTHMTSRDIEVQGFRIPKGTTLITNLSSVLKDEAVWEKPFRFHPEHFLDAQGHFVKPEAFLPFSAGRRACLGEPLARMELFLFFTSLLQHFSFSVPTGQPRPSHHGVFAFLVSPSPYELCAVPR
Cytochrome P450 2C19, sequence (P33261 whole entry): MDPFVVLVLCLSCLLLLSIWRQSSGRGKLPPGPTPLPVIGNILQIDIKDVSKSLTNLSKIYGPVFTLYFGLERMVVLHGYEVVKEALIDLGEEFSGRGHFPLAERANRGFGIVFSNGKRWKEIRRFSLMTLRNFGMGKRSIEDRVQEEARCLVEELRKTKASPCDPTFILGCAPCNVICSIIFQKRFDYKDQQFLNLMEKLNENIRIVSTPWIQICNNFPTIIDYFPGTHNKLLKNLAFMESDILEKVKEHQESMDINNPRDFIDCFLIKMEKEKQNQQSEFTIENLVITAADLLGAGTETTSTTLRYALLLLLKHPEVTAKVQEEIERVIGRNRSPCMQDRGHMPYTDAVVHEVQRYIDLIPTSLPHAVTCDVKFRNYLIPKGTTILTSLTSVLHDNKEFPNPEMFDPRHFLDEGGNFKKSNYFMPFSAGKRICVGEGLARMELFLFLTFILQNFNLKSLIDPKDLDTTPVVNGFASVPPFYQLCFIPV

Structure (SMILES) | efflux ratio at 10 µM [1] | Papp B→A at 10 µM [2] [×10⁻⁶ cm/s] | IC50 [3] [µM] | solubility [4] [µg/mL] | inhibition [5] [%] | logD [6] | IC50 [7] [µM] | half-life at 1 µM [8] [h] | remaining at 3 h, 1 µM [9] [%] | Papp A→B at 10 µM [10] [×10⁻⁶ cm/s] | IC50 [11] [µM] | IC50 [12] [µM] | fraction unbound at 1 h, 10 µM [13] | IC50 [14] [µM] | Drug metabolism [15] | IC50 [16] [µM]
CNC(=O)C(=O)NCCCC/C=C\CCCCCCCCCC(=O)O | 0.4 | 2.3 | > 50 | 80 (≈ 226 µM) | -4.1 | 2.01 | > 50 | 0.874 | 85.3 | 5.3 | > 50 | > 50 | 0.0009 | > 50 | Metabolite_Notdetected | > 50
CNC(=O)C(=O)NCCCC/C=C\CCCCCCCCCc1nnn[nH]1 | 0.8 | 8 | 5.4 | 40 (≈ 106 µM) | -1.3 | 2.35 | 43.2 | 3.02 | 104 | 10 | > 50 | > 50 | 0.0003 | 0.21 | Metabolite_Notdetected | > 50
CNC(=O)C(=O)NCCCC/C=C\CCCCCCCOCC(=O)O | 0.6 | 15.8 | > 50 | 1960 (≈ 5500 µM) | 0.8 | -0.03 | > 50 | 5.83 | 102 | 28.2 | > 50 | > 50 | 0.0063 | 46.2 | Metabolite_Notdetected | > 50
